According to patent US20050182020A1, “Ceramide de novo synthesis-based therapeutic and prophylactic methods, and related articles of manufacture” (priority 2003, published 2005):

Key:
[1] = system: SRE-mediated gene transcription; assay: SRE-mediated gene transcription, Part II inhibitors of sphingolipid synthesis and DAG generation; format: cell-based; design: SRE-mediated gene transcription inhibited to: unit of the concentration uncertain
Method: Reduction of de novo sphingolipid synthesis: Incubation with methylthiodihydroceramide (10 μM) for 6 h reduces SRE-mediated gene transcription to 40%. Methylthiodihydroceramide was received from Gerhild van Echten-Deckert (1). Reduction of de novo sphingolipid biosynthesis by 1-methylthiodihydroceramide is due to its ability to deplete cells of newly formed free sphinganine.
Inhibition of sphingomyelin synthesis: The D609 compound is a xanthate and inhibitor of sphingomyelin synthase. It is a mixture of several isoforms (2). Experiments were carried out with five defined isomers of D609 received via Gemma Fabrias (Dept. of Biological Organic Chemistry, Barcelona, Spain) (Table 1). […] A concentration curve of 10, 20 and 40 μg/ml was tested over 5 h.
Data: Propanolol ([…]) inhibits SRE-mediated gene transcription to 40% (+3%) within 30 min. Resvaratrol ([…]) inhibits SRE-mediated gene transcription to 7% (±16%) within 4 h.

[2] = system: SRE-mediated gene transcription; assay: SRE-promoter luciferase reporter gene assay in stably transfected CHO cells; format: cell-based, Chinese hamster; conditions: for SRE-mediated gene transcription (luciferase RLU/protein): myriocin 1 μM, cycloserine 500 mM, fumonisin B1 10 μM, PPMP 20 μM, NB-DNJ 40 μM, cholesterol/25-OH cholesterol 10/1 μg/ml, vs 1% BSA
Method: FIG. 3. Inhibition of ceramide synthesis and SRE-mediated gene transcription. (A) Decreased ceramide synthesis correlates with decreased levels of SRE-mediated gene transcription and mSREBP. […] After cell lysis, luciferase activity was analyzed, and expressed as a ratio of protein content. Data represent the average (±S.D.) of at least 4 different experiments, each performed in triplicate. […] CHO cells stably transfected with an SRE-promoter construct linked to the luciferase reporter gene were incubated for 8 h in the presence of control conditions (1% BSA) or increasing levels of myriocin (0.25-1 μM). After cell lysis, luciferase activity was analyzed, expressed as a ratio of protein content. Data represent the average (±S.D.) of at least 3 different experiments, each performed in triplicate.
FIG. 4. Increased ceramide synthesis and SRE-mediated gene transcription. (A) Increased ceramide de novo synthesis correlates with increased SRE-mediated gene transcription. On day 1, CHO cells stably transfected with an SRE-promoter construct linked to the luciferase reporter gene were plated at 80% confluency. […] Cells were harvested, lysed and analyzed for luciferase activity (measured in relative light units, RLU) and protein content. Data are expressed as percentage of control and represent the average (±S.D.) of three different experiments, each performed in triplicate. Inset: Western blot analysis: On day 1, CHO cells were plated in regular growth medium. On day 2, cells were incubated for 8 h with control medium (1% BSA) or DMS (5 μM). Whole cell extracts (30 μg protein) were loaded on a 4-14% continuous gradient SDS-PAGE gel. P and M denote the precursor (125 kd) and mature (68 kd) form of SREBP-1 in a representative experiment. (B) DMS increases ceramide de novo synthesis. CHO cells were treated for 3.5 h either with control conditions (1% BSA) or DMS (2.5-5 μM). […] Data are expressed as dpm/protein and represent a typical experiment.
(§1) FIG. 5. LY-B cells fail to recover SRE-mediated gene transcription in cholesterol depletion but recover SRE-mediated gene transcription in the presence of DMS. […] Both cell lines have been transfected to stably express an SRE-promoter construct linked to the luciferase reporter gene. On day 2, cells were incubated for 16 h with 1% BSA (control) or in the presence of cholesterol (10 μg/ml) and 25-OH cholesterol (1 μg/ml) to decrease SRE-mediated gene transcription. Then, incubation medium was switched to 1% BSA or DMS (5 μM) for 6 h. After cell lysis, luciferase activity was analyzed, expressed as a ratio of protein content. Data represent the average (±S.D.) of at least 4 different experiments, each performed in triplicate.
Cell culture and stable transfections: Cells were grown in F12-nutrient mixture medium containing 10% fetal bovine serum (FBS), 1% glutamine (v/v), 1% penicillin/streptomycin (v/v), and 10% fetal bovine serum (v/v) at 37° C. in humidified CO2 (5%). To obtain stable transfectants, cells were plated in 12-well plates at 50% confluency and transfected for 5 h in the presence of serum-free Dulbecco's modified Eagle's medium (DMEM) with pSyn SRE (1 μg/well) and pWLNeo (0.25 μg/well) using Lipofectamin (1.5 μl/well). Cells were then incubated for 2 days in growth medium. On day three, neomycin-containing medium (400 μg/ml) was added. Selection for neomycin resistant colonies was continued for three weeks. Pooled clones were analyzed for luciferase expression. Experiments were performed with pooled clones as well as with cells derived from a single clone. Cells were grown in the presence of 400 μg/ml neomycin. For experimental use, cells were plated in the absence of neomycin at least 24 h ahead in regular growth medium.
Enzyme assays: Cells to be analyzed for luciferase activity were lyzed in lysis buffer A containing 0.1% Triton X-100, 50 mM Hepes, 10 mM MgSO4, pH 7.7. Cells were scraped, collected, vortexed and briefly centrifuged to pellet cell debris. […]

[3] = system: Niemann Pick Disease Type A fibroblasts; assay: Ceramide de novo synthesis (3H-serine) in NPA fibroblasts; format: cell-based; conditions: overnight incubation with agent, vs 1% BSA
Method: FIG. 19. Ceramide synthesis is increased in NPA fibroblasts. Fibroblasts from different control individuals and from two different cell lines derived from Niemann Pick Disease Type A were incubated for 4 h in the presence of ^3H-serine to measure de novo ceramide synthesis after having been incubated overnight in either control medium (1% BSA) or in the presence of cholesterol or C8-Ceramide. Lipid extraction and separation were carried out.

HMG-CoA synthase mRNA = conditions: previously shown (ref. 10); cited from earlier work
SREBP-1 = assay: Western blot analysis of precursor and mature SREBP-1 in CHO cells; format: cell-based, Chinese hamster; conditions: C6-ceramide 20 μM, 4 h and 8 h, vs controls
Method: FIG. 2. C6-ceramide increases pSREBP levels. On day 1, CHO cells were plated in regular growth medium. On day 2, cells were incubated for 4 and 8 h with 1% BSA (control) or in the presence of C6-ceramide (20 μM). Whole cell extracts (30 μg protein) were loaded on a 4-14% continuous gradient SDS-PAGE gel. P denotes the precursor (125 kd) form of SREBP-1 in a representative experiment. C6 ceramide increases the precursor form of SREBP-1 and decreases the mature form of SREBP-1. […] The blot is representative of experiments carried out with ceramide analogues of different chain length. Densitometric results were obtained by analyzing pixels/inch (corrected for actin) and expressed relative to control.
FIG. 4. Increased ceramide synthesis and SRE-mediated gene transcription. (A) Increased ceramide de novo synthesis correlates with increased SRE-mediated gene transcription. […] Cells were harvested, lysed and analyzed for luciferase activity (measured in relative light units, RLU) and protein content. Data are expressed as percentage of control and represent the average (±S.D.) of three different experiments, each performed in triplicate. […] Data are expressed as dpm/protein and represent a typical experiment.
Western blot analysis: Cells were plated on day one in regular growth medium. […] Densitometric quantification was carried out using Scion Image beta 4.02 software (www.scioncorp.com). […]

HSN1 cells (4561) = assay: Cholesterol / cholesterylester synthesis from 3H-mevalonate in HSN1 cells; format: cell-based, human; conditions: 16 h, 3H-mevalonate
Method: FIG. 12. Increased free cholesterol synthesis in HSN cells. In order to investigate whether increased SRE-mediated gene transcription also results in increased cholesterol synthesis cells were incubated with radioactive mevalonate, a precursor which represents a committed step in cholesterol synthesis (see FIG. 11). Control and HSN1 cells were incubated for 7 h and 18 h in the presence of trace amounts of ^3H-mevalonate. Lipids were extracted and separated by thin […] chromatography (TLC). Radioactive counts in the cholesterol fraction were analyzed by liquid scintillation counting.
FIG. 14. Oleic acid increases HSN 4561 synthesis of high levels of free cholesterol but not cholesteryl ester. Cells were incubated for 4 h with ^3H-mevalonate and grown in the presence or absence of 0.3 mM oleic acid.
FIG. 16. Incubation with mevastatin decreases free cholesterol synthesis in HSN cells as well as in controls. Cells were treated for 16 h in the presence of ^3H-mevalonate to assess cholesterol de novo synthesis and several inhibitors of either cholesterol or ceramide synthesis (Mevastatin=Statin), C6 ceramide (previously shown by us to decreased SREBP levels and SRE-mediated gene transcription), cycloserine (inhibitor of serine-palmiltoyl transferase), cholesterol (classical inhibitor of de novo synthesis by negative feedback).

[4] = system: SRE-mediated gene transcription; assay: SRE-promoter luciferase reporter gene assay in LY-B cells (CHO cells mutated in LCB1 subunit of serine-palmitoyl transferase); format: cell-based, Chinese hamster; conditions: preliminary data
Method: as §1
Enzyme assays: Cells to be analyzed for luciferase activity were lyzed in lysis buffer A containing 0.1% Triton X-100, 50 mM Hepes, 10 mM MgSO4, pH 7.7. Cells were scraped, collected, vortexed and briefly centrifuged to pellet cell debris. An aliquot was used to measure luciferase activities in a luminometer (Berthold LB 9501, Wallac Inc., Gaithersburg, Md.) with a luciferin reagent from Promega (Madison, Wis.). Luciferase activity in relative light units (RLU) was divided by protein content (mg/ml) for each extract. […]

Molecule: 1-methylthiodihydroceramide
- SRE-mediated gene transcription reduced to ([1]; 10 μM, 6 h): 40%

Molecule: CCCCCCCCCCCCCCCC(=O)NC(CN1CCOCC1)C(O)c1ccccc1.Cl (racemic) [PPMP, DL-threo-1-Phenyl-2-palmitoylamino-3-morpholino-1-propanol HCL]
- SRE-mediated gene transcription (luciferase RLU/protein) ([2]; 8 h): significantly reduce

Molecule: CCCCCCCCCCCCC/C=C/[C@@H](O)[C@H](CO)NC(=O)CCCCCCC [C8-ceramide, D-erythro N-octanoylsphingosine]
- ceramide de novo synthesis (3H-serine, 4 h) [3]: significantly decreases

Molecule: CCCCCCCCCCCCCC(=O)N[C@H](C)[C@@H](O)c1ccccc1 [D-MAPP, (1S,2R)-D-erythro-2-(N-Myristoylamino)-1-phenyl-1-propanol]
- mRNA levels of HMG-CoA synthase (HMG-CoA synthase mRNA): decrease

Molecule: CCCCN1C[C@H](O)[C@@H](O)[C@H](O)[C@H]1CO.Cl [NB-DNJ, N-Butyldeoxynojirimycin-HCL]
- SRE-mediated gene transcription (luciferase RLU/protein) ([2]; 8 h): does not affect

Molecule: CC(C)NCC(O)COc1cccc2ccccc12 (stereo not shown) [Propanolol]
- SRE-mediated gene transcription inhibited to ([1]; 250 (unit uncertain), within 30 min): 40% (+3%)

Molecule: Oc1ccc(C=Cc2cc(O)cc(O)c2)cc1 [Resvaratrol, resveratrol]
- SRE-mediated gene transcription inhibited to ([1]; 300 (unit uncertain), within 4 h): 7% (±16%)

Molecule: CCCCCCCCCCCCC/C=C/[C@@H](O)[C@@H](N)CO [Sphingosine]
- increase of SRE-mediated gene transcription ([2]; sphingosine 1.5 μM, 8 h): up to two-fold

Molecule: N[C@@H]1CON=C1O [cycloserine]
- SRE-mediated gene transcription (luciferase RLU/protein) ([2]; 8 h): significantly reduced

Molecule: AG10
- Reduction of SRE-mediated gene transcription(40 μg/ml) ([1]; 40 μg/ml, 5 h): 52% (±11%)

Molecule: D-erythro hexanoylsphingosine [C6-ceramide]
- cellular levels of pSREBP (SREBP-1): increased
- levels of mSREBP (SREBP-1): decreased
- sensitivity of cholesterol de novo synthesis in HSN1 cells (4561) relative to control cells (HSN1 cells (4561)): more sensitive

Molecule: ceramide
- SRE-mediated gene transcription on addition of ceramide ([2]; under the experimental conditions of FIG. 3, data not shown): did not increase
- mRNA levels of HMG-CoA synthase (HMG-CoA synthase mRNA): decrease
- SRE-mediated gene transcription in LYB-cells incubated with ceramide [4]: did not decrease
